From patent publication US20260193294A1, “POLYPEPTIDE INHIBITOR, AND PREPARATION METHOD THEREFOR AND USE THEREOF” (SHANGHAI HANSOH BIOMEDICAL CO., LTD., priority 2022, published 2026) come the findings set out here.

SMILES strings stand for the structures.

Data set [1] in a line: Pharmacokinetic determination in beagle dogs (IV). The note with it: male, dog, plasma, 0.2 mg/kg.
Procedure: (§3) Beagle dogs were used as test animals to study the pharmacokinetic behavior of the compounds of the examples in the rats (plasma) after IV administration.
(§4) 3 beagle dogs/group, male, from Yizheng Anlimao Biotechnology Co., Ltd.
(§5) The compounds of the examples were weighed and dissolved in this solution, vortexed, ultrasonicated for 5 min, and filtered through a 0.22 μm filter membrane to obtain colorless clear solutions with a concentration of 0.1 mg/mL.
(§6) 3 beagle dogs/group, male were fasted overnight and then respectively administered IV at a dose of 0.2 mg/kg and a volume of 2 mL/kg.
(§7) 1) Acetonitrile (200 μL) was added to the plasma sample (50 L) for precipitation, and the mixture was mixed and centrifuged at 4500 rpm for 15 min.
(§8) 2) The treated supernatant solution was taken and subjected to LC/MS/MS to analyze the concentrations of the test compounds. LC/MS/MS analysis instrument: AB Sciex Triple Quad 6500+.
(§9) Premier Peptide CSH C18 130A 1.7 μm 2.1*100 mm Column, mobile phase: liquid A: 5% acetonitrile aqueous solution (0.1% formic acid), and liquid B: an aqueous solution of 95% acetonitrile (0.1% formic acid) • Flow rate: 0.6 mL/min • Elution time: 0-2.0 min, the eluent was as follows:
(§10) The main pharmacokinetic parameters were calculated using WinNonlin 8.1.
The target of data set [2] is T1, IL23R (Homo sapiens, UniProt Q5VWK5).
T1 construct: Tag2 (identity not disclosed); purchased PerkinElmer 64BDPIL23PEH
T1 sequence (Q5VWK5 24-355 limits assumed): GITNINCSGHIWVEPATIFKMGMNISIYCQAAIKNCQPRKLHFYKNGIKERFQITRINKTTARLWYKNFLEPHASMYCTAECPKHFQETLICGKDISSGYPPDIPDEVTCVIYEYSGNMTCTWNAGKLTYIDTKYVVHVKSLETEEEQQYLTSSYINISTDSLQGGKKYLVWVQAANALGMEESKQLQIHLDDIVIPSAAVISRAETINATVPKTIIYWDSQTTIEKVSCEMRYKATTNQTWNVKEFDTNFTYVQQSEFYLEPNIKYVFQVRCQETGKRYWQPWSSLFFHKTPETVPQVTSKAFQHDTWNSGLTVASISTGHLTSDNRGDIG
Kind of data set: Competing with IL23 for binding to IL23R (HTRF, IL23/IL23R binding assay kit). The note with it: 2 hours incubation at room temperature. As to the method: (§1) The compounds of the present disclosure were screened in IL23/IL23R BINDING ASSAY KITS (PerkinElmer Cat #64BDPIL23PEH). The screening of the compounds of the present disclosure was carried out by using a multi-well plate (suitable for HTRF determination). Generally, 2 μl of several compounds of the present disclosure and STANDARD SOLUTIONS in KIT were first respectively added to the wells of the multi-well plate. 4 μl of Tag1-IL23, 4 μl of Tag2-IL23R, and 10 μL of pre-mixed Anti-Tag1 Eu Cryptate Antibody and Anti-Tag2 d2 reagent were necessarily added to all the wells. The multi-well plate was protected from light by an opaque cover membrane, and the opaque cover membrane was then removed
as §1, with “removed after 2 hours of incubation at room temperature. The signal value was read by an HTRF-compatible detection instrument to detect IC50 value.” for “removed”
(§2) The inhibition rate was calculated as follows: […]
By using log (inhibitor) vs. response—Variable slope (four parameters) in Graphpad, the data of HTRF experiment results were subjected to non-linear regression fitting to fit a curve and obtain the IC50 value.

Data set [3] is described as follows: Pharmacokinetic determination in rats (IV). As to conditions: male, Sprague-Dawley (SD), rat, plasma, 1 mg/kg.
Procedure: (§11) SD rats were used as test animals to study the pharmacokinetic behavior of the compounds of the examples in the rats (plasma) after oral or IV administration.
Preparation of intravenous drug: PBS
(§12) The compounds of the examples were weighed and dissolved in this solution, vortexed, ultrasonicated for 5 min, and filtered through a 0.22 μm filter membrane to obtain colorless clear solutions with a concentration of 0.2 mg/mL.
(§13) 3 SD rats/group, male were fasted overnight and then respectively administered IV at a dose of 1 mg/kg and a volume of 5 mL/kg.
(§14) • Before administration and at 0.083 h, 0.25 h, 0.5 h, 1.0 h, 2.0 h, 4.0 h, 6.0 h, 8.0 h, and 24.0 h after administration (IV), 0.2 mL of blood was collected from the jugular vein, placed in an EDTA-2K test tube, and centrifuged at 6000 rpm for 6 min at 4° C. to separate plasma, which was stored at −20° C.; and the rats were fed 4 h after administration.
(§15) 1) Acetonitrile (200 μL) was added to the plasma sample (50 μL) for precipitation, and the mixture was mixed and centrifuged at 4500 rpm for 15 min.
as §8
(§16) • Liquid phase conditions: Shimadzu LC-30AD pump • Chromatographic column: HALO 90A PFP 2.7 μm 2.1×30 mm, mobile phase: liquid A: 5% acetonitrile aqueous solution (0.1% formic acid), and liquid B: an aqueous solution of 95% acetonitrile (0.1% formic acid) • Flow rate: 0.6 mL/min • Elution time: 0-2.0 min, the eluent was as follows:
as §10
Data set [4] is described as follows: in vivo. As to conditions: male, Sprague-Dawley (SD), rat, iv, 1 mg/kg.
Procedure: as §11
Preparation of intravenous drug: PBS
as §12, §13, §14, §15, §8, §16, §10
Data set [5] can be described thus: Solubility in PBS. Type of data set: physicochemical. The note with it: PBS pH 7.4, room temperature. As to the method: To study the solubility of the compounds in PBS.
About 2 mg of the compound was weighed, an appropriate amount of a PBS solution was added, and the mixture was dissolved clear by ultrasonication for 10 seconds. No precipitation was found after standing at room temperature overnight.

For data set [6], the system named is activation of STAT3 phosphorylation by hIL23 in DB cells. The data set is described as follows: Blocking the activation of STAT3 phosphorylation by hIL23 in DB cells (p-STAT3 ELISA). The class given is cell-based, Human. The note with it: DB cells stimulated by rhIL-23 0.5 nM, half an hour; read-out: pStat3 IC50. As to the method: To determine the inhibitory activity of the compounds of the present disclosure on the activation of STAT3 phosphorylation by hIL23 in DB cells
The compounds produced above were added to DB (ATCC Cat #CRL-2289) cells to inhibit the signal transduction of rhIL-23 cytokine. The screening of compounds was carried out by a multi-well plate (suitable for ELISA assay). Generally, in the presence of some of the above compounds of the present disclosure, 6.25×10^6 cells/ml of DB cells were stimulated by rhIL-23 (0.5 nM, R&D SYSTEMS) in RPMI medium (Invitrogen) containing 10% of FBS, and after half an hour, lysis was carried out on ice using 50 μL of 2×lysis buffer (CST). The content of p-STAT3 in the lysate was determined by PathScan Phospho-Stat3 (Tyr705) Sandwich ELISA Kit (CST Cat #7300C), so as to calculate the activity of the compounds of the present disclosure in blocking rhIL23 signal transduction in DB cells.
as §2
By using log (inhibitor) vs. response—Variable slope (four parameters) in Graphpad, the data of ELISA experiment results were subjected to non-linear regression fitting to fit a curve and obtain the IC50 value.

A short description of data set [7]: in vivo. As to conditions: male, beagle, dog, iv, 0.2 mg/kg.
Procedure: as §3, §4, §5, §6, §7, §8, §9, §10

For orientation: AUC(0-inf) means total exposure, with the tail of the curve extrapolated. Low values mean less exposure, high ones more exposure. Broadly, the AUC(0-t) is exposure summed from dosing to a finite time, without extrapolation to infinity. Read a high AUC(0-t) as high exposure. The term MRT denotes the average time that molecules of a dose stay in the body. A word on the clearance: it is a measure of how efficiently the substance is removed, as volume per time. A higher clearance goes with efficient removal. One may read the IC50 as the concentration at which inhibition is half-maximal. Usually half-life stands for the time needed for the level to fall by half in the phase considered. Read a high half-life as slow decline. Usually solubility stands for how much of the substance goes into solution per volume. A lower solubility goes with a poorly soluble substance. In data set [1], `CC(=O)NCCCC[C@@H]1NC(=O)[C@H](Cc2c[nH]c3c(C)cccc23)NC(=O)[C@H]([C@@H](C)O)NC(=O)[C@H](CC(N)=O)NC(=O)[C@@H](NC(C)=O)C(C)(C)SSC(C)(C)[C@@H](C(=O)N[C@@H](Cc2ccc(OCCN)cc2)C(=O)N[C@@H](Cc2ccc3ccccc3c2)C(=O)NC2(C(=O)N[C@@H](CCC(=O)O)C(=O)N[C@@H](CC(N)=O)C(=O)N[C@@H](Cc3cccnc3)C(=O)N(C)CCNC(=O)CCOCCOCC[N+](C)(C)CCNC(=O)COCCOCCNC(=O)COCCOCCNC(=O)CC[C@H](NC(=O)CCCCCCCCCCCCCCC(=O)O)C(=O)O)CCC(F)(F)CC2)NC1=O` [Example 1-16-1] came in with an AUC(0-inf) of 76400 ng·h/mL, an AUC(0-t) of 68800 ng·h/mL, a C0 of 2750 ng/mL and a mean residence time (MRT) of 66.9 h. In data set [1], this compound came in with a clearance of 0.04 mL/min/kg. In addition, the concentration for half-maximal inhibition (IC50) in data set [2] was determined as 2.73 nM. In data set [3], the total exposure AUC(0-inf) came to 47600 ng·h/mL, the exposure AUC(0-t) was 46100 ng·h/mL, the C0 is 12600 ng/mL and the MRT was determined as 6.2 h. The compound further came in with a clearance in data set [3] of 0.35 mL/min/kg. In data set [4], this compound gave a half-life of 5 h. In data set [5], this compound came in with a solubility of 39.6 to 59.4 mg/mL. Besides, the half-inhibitory concentration (IC50) in data set [6] stood at 0.0048 nM. The compound further showed a half-life in data set [7] of 53.8 h.
